# Measured values from patent publication US20150181873A1, “HERBICIDE-RESISTANT SUNFLOWER PLANTS, POLYNUCLEOTIDES ENCODING HERBICIDE=RESISTANT ACETO HYDROXY ACID SYNTHASE LARGE SUBUNIT PROTEINS, AND METHODS OF USE” (NIDERA S.A., priority 2013, published 2015).
# Columns and labels:
# Assay type in all cases: in vivo, Helianthus annuus
# [1] = system: sunflower hybrid TH9 (A205V); assay: Greenhouse imazapir dose response, TH9; settings: 14 DAT
# Protocol: (§1) A greenhouse study was conducted to quantify and contrast the imazapir sensivity of the mutants A122T and A205V in different genetic backgrounds at the whole plant level in sunflower. Seeds of the different sunflower lines that were used in this study were obtained under field conditions.
# (§2) Seeds were sown in Petri dishes and, after germination, plantlets were transplanted to pots of 10 cm of diameter in a potting media consisting of equal parts of vermiculite, soil and sand. Plants were grown in a greenhouse under natural light conditions supplemented with 400 W sodium halide lamps to provide a 16 hrs daylength. Day/night temperatures were 25 and 20° C., respectively. At the V2 stage 10 plants of each genotype were randomly assigned to each treatment consisting of […] imazapir doses (0, 40, 80, 160, 240, 320, 400 and 480 g ai/ha), and a zero-time biomass determination. Experiment was arranged as a randomized block design with a full factorial (sunflower line×treatment) arrangement of treatments and 10 replications.
# (§3) On the day of herbicide application ten plants of each genotype were cut at the cotyledonal node and dried at 60° C. for 48 hrs zero-time for dried weight determination. […] Height was determined as the distance between the cotyledonal node and the apex of each plant. For root biomass determination, each plant was taken from the pot and the potting media was washed out from the roots. Above ground biomass data from each line were converted to biomass accumulation after application by subtracting the appropriate average zero-time biomass from each sample. Dry biomass data were converted to percentages of the untreated control plants within each line to allow direct comparisons between groups.
# [2] = system: sunflower hybrid TH6 (A122T); assay: Greenhouse imazapir dose response, TH6; settings: 14 DAT
# Protocol: as §1, §2, §3
# [3] = system: sunflower genotypes carrying the A122T mutation event; assay: Greenhouse imazapir dose response, A122T genotypes together; settings: A122T mean, 14 DAT
# Protocol: as §1, §2, §3
structure (smiles),measurement,setting,value
"CC(C)C1(C)N=C(c2ncccc2C(=O)O)NC1=O (stereo not drawn) [Imazapyr, imazapyr]",Phytotoxicity Index,[1]; 0.5x (40 g ai/ha),0
same,"biomass accumulation, % of untreated",[1]; 0.5x (40 g ai/ha),91.7%
same,"plant height, % of untreated",[1]; 0.5x (40 g ai/ha),100.0%
same,"root dry weight, % of untreated",[1]; 0.5x (40 g ai/ha),81.5%
same,Phytotoxicity Index,[1]; 1x (80 g ai/ha),0
same,"biomass accumulation, % of untreated",[1]; 1x (80 g ai/ha),81.7%
same,"plant height, % of untreated",[1]; 1x (80 g ai/ha),100.0%
same,"root dry weight, % of untreated",[1]; 1x (80 g ai/ha),84.9%
same,Phytotoxicity Index,[1]; 2x (160 g ai/ha),1.6
same,"biomass accumulation, % of untreated",[1]; 2x (160 g ai/ha),54.7%
same,"plant height, % of untreated",[1]; 2x (160 g ai/ha),78.9%
same,"root dry weight, % of untreated",[1]; 2x (160 g ai/ha),58.8%
same,Phytotoxicity Index,[1]; 3x (240 g ai/ha),5.1
same,"biomass accumulation, % of untreated",[1]; 3x (240 g ai/ha),35.7%
same,"plant height, % of untreated",[1]; 3x (240 g ai/ha),50.0%
same,"root dry weight, % of untreated",[1]; 3x (240 g ai/ha),34.1%
same,Phytotoxicity Index,[1]; 4x (320 g ai/ha),8.4
same,"biomass accumulation, % of untreated",[1]; 4x (320 g ai/ha),25.3%
same,"plant height, % of untreated",[1]; 4x (320 g ai/ha),38.1%
same,"root dry weight, % of untreated",[1]; 4x (320 g ai/ha),27.3%
same,Phytotoxicity Index,[1]; 5x (400 g ai/ha),8.9
same,"biomass accumulation, % of untreated",[1]; 5x (400 g ai/ha),19.8%
same,"plant height, % of untreated",[1]; 5x (400 g ai/ha),31.8%
same,"root dry weight, % of untreated",[1]; 5x (400 g ai/ha),29.9%
same,Phytotoxicity Index,[1]; 6x (480 g ai/ha),8.9
same,"biomass accumulation, % of untreated",[1]; 6x (480 g ai/ha),19.5%
same,"plant height, % of untreated",[1]; 6x (480 g ai/ha),34.7%
same,"root dry weight, % of untreated",[1]; 6x (480 g ai/ha),22.1%
same,Phytotoxicity Index,[2]; 0.5x (40 g ai/ha),0.5
same,"biomass accumulation, % of untreated",[2]; 0.5x (40 g ai/ha),100%
same,"plant height, % of untreated",[2]; 0.5x (40 g ai/ha),99.2%
same,"root dry weight, % of untreated",[2]; 0.5x (40 g ai/ha),100%
same,Phytotoxicity Index,[2]; 1x (80 g ai/ha),0.5
same,"biomass accumulation, % of untreated",[2]; 1x (80 g ai/ha),97.2%
same,"plant height, % of untreated",[2]; 1x (80 g ai/ha),98.6%
same,"root dry weight, % of untreated",[2]; 1x (80 g ai/ha),98.1%
same,Phytotoxicity Index,[2]; 2x (160 g ai/ha),0.5
same,"biomass accumulation, % of untreated",[2]; 2x (160 g ai/ha),97.9%
same,"plant height, % of untreated",[2]; 2x (160 g ai/ha),100.3%
same,"root dry weight, % of untreated",[2]; 2x (160 g ai/ha),96.2%
same,Phytotoxicity Index,[2]; 3x (240 g ai/ha),0.5
same,"biomass accumulation, % of untreated",[2]; 3x (240 g ai/ha),98.2%
same,"plant height, % of untreated",[2]; 3x (240 g ai/ha),99.6%
same,"root dry weight, % of untreated",[2]; 3x (240 g ai/ha),79.3%
same,Phytotoxicity Index,[2]; 4x (320 g ai/ha),0.5
same,"biomass accumulation, % of untreated",[2]; 4x (320 g ai/ha),97.8%
same,"plant height, % of untreated",[2]; 4x (320 g ai/ha),101.0%
same,"root dry weight, % of untreated",[2]; 4x (320 g ai/ha),78.4%
same,Phytotoxicity Index,[2]; 5x (400 g ai/ha),0.5
same,"biomass accumulation, % of untreated",[2]; 5x (400 g ai/ha),85.1%
same,"plant height, % of untreated",[2]; 5x (400 g ai/ha),87.0%
same,"root dry weight, % of untreated",[2]; 5x (400 g ai/ha),85.8%
same,Phytotoxicity Index,[2]; 6x (480 g ai/ha),0.5
same,"biomass accumulation, % of untreated",[2]; 6x (480 g ai/ha),79.5%
same,"plant height, % of untreated",[2]; 6x (480 g ai/ha),79.6%
same,"root dry weight, % of untreated",[2]; 6x (480 g ai/ha),57.3%
same,"biomass accumulation, Dif with control",[3]; 0.5x (40 g ai/ha),1.1%
same,"plant height, Dif with Control",[3]; 0.5x (40 g ai/ha),0.6%
same,"root dry weight, Dif with control",[3]; 0.5x (40 g ai/ha),0.1%
same,"biomass accumulation, Dif with control",[3]; 1x (80 g ai/ha),3.2%
same,"plant height, Dif with Control",[3]; 1x (80 g ai/ha),1.4%
same,"root dry weight, Dif with control",[3]; 1x (80 g ai/ha),2.5%
same,"biomass accumulation, Dif with control",[3]; 2x (160 g ai/ha),5.1%
same,"plant height, Dif with Control",[3]; 2x (160 g ai/ha),2.7%
same,"root dry weight, Dif with control",[3]; 2x (160 g ai/ha),5.9%
same,"biomass accumulation, Dif with control",[3]; 3x (240 g ai/ha),7.2%
